# Test results: patent US9416124B2, “Substituted 2-alkyl-1-OXO-N-phenyl-3-heteroaryl-1,2,3,4-tetrahydroisoquinoline-4-carboxamides for antimalarial therapies” (ST. JUDE CHILDREN'S RESEARCH HOSPITAL, priority 2011, dated 2016)
# Test system: P. falciparum 3D7
# Experiment: P. falciparum drug susceptibility assay (3D7)
# Assay type: cell-based, Plasmodium falciparum
# Conditions: Plasmodium falciparum; 3D7 strain; racemate unless indicated; read-out: 3D7_EC50
# Method: Parasites were grown as previously described in Mallari, J. P., Guiguemde, W. A., and Guy, R. K., Antimalarial activity of thiosemicarbazones and purine derived nitriles, Bioorg Med Chem Lett 19 (13), 3546 (2009). […] DMSO inhibitor stock solutions were pin-transferred (V&P Scientific) into the assay plate and background fluorescence was measured in both relevant channels (485 nm /535 nm, 612 nm /665 nm) in an Envision plate reader (PerkinElmer). Then 20 μl of a synchronized culture suspension (1% rings, 10% hematocrit) were added per well, thus making a final hematocrit and parasitemia of 5% and 1% respectively. Assay plates were incubated for 72 h and parasitemia was determined based on a modified protocol. (Smilkstein, M. et al., Simple and inexpensive fluorescence-based technique for high-throughput antimalarial drug screening. Antimicrob Agents Chemother 48 (5), 1803 (2004)). Briefly, 5 μl of mixed DNA dye solution in RPMI (5X SYBR Green I, 1 μM YOYO-3, 1% v/v Triton X-100, 1 mg/ml saponin) were added per well, assay plates were shaken for 30 s at 2000 rpm, incubated in the dark for 4 h, then read as previously described.
row,SMILES,EC50 [nM]
1,"N#Cc1cc(NC(=O)[C@H]2c3ccccc3C(=O)N(CC(F)(F)F)[C@@H]2c2cn[nH]c2)ccc1F (racemic) [Example 2, N-(3-cyano-4-fluorophenyl)-1-oxo-3-(1H-pyrazol-4-yl)-2-(2,2,2-trifluoroethyl)-1,2,3,4-tetrahydroisoquinoline-4-carboxamide]",41
2,"Cn1cc([C@@H]2[C@@H](C(=O)Nc3ccc(F)c(C#N)c3)c3ccccc3C(=O)N2CC(F)(F)F)cn1 (racemic) [Example 4, N-(3-cyano-4-fluorophenyl)-3-(1-methyl-1H-pyrazol-4-yl)-1-oxo-2-(2,2,2-trifluoroethyl)-1,2,3,4-tetrahydroisoquinoline-4-carboxamide]",24
3,"N#Cc1cc(NC(=O)[C@H]2c3ccccc3C(=O)N(CC(F)(F)F)[C@@H]2c2cccnc2)ccc1F (racemic) [Example 6, N-(3-cyano-4-fluorophenyl)-1-oxo-3-(pyridin-3-yl)-2-(2,2,2-trifluoroethyl)-1,2,3,4-tetrahydroisoquinoline-4-carboxamide]",54
4,"CC(C)CN1C(=O)c2ccccc2[C@H](C(=O)Nc2cc(Cl)cc(C#N)c2)[C@H]1c1cn[nH]c1 (racemic) [Example 7, N-(3-chloro-5-cyanophenyl)-2-isobutyl-1-oxo-3-(1H-pyrazol-4-yl)-1,2,3,4-tetrahydroisoquinoline-4-carboxamide]",3
5,"N#Cc1cc(Cl)cc(NC(=O)[C@H]2c3ccccc3C(=O)N(CC(F)(F)F)[C@@H]2c2cn[nH]c2)c1 (racemic) [Example 8, N-(3-chloro-5-cyanophenyl)-1-oxo-3-(1H-pyrazol-4-yl)-2-(2,2,2-trifluoroethyl)-1,2,3,4-tetrahydroisoquinoline-4-carboxamide]",26
6,"CC(C)CN1C(=O)c2ccccc2[C@H](C(=O)Nc2cc(Cl)cc(C#N)c2)[C@H]1c1cnn(C)c1 (racemic) [Example 9, N-(3-chloro-5-cyanophenyl)-2-isobutyl-3-(1-methyl-1H-pyrazol-4-yl)-1-oxo-1,2,3,4-tetrahydroisoquinoline-4-carboxamide]",8
7,"Cn1cc([C@@H]2[C@@H](C(=O)Nc3cc(Cl)cc(C#N)c3)c3ccccc3C(=O)N2CC(F)(F)F)cn1 (racemic) [Example 10, N-(3-chloro-5-cyanophenyl)-3-(1-methyl-1H-pyrazol-4-yl)-1-oxo-2-(2,2,2-trifluoroethyl)-1,2,3,4-tetrahydroisoquinoline-4-carboxamide]",6
8,"CC(C)CN1C(=O)c2ccccc2[C@H](C(=O)Nc2cc(Cl)cc(C#N)c2)[C@H]1c1cccnc1 (racemic) [Example 11, N-(3-chloro-5-cyanophenyl)-2-isobutyl-1-oxo-3-(pyridin-3-yl)-1,2,3,4-tetrahydroisoquinoline-4-carboxamide]",20
9,"N#Cc1cc(Cl)cc(NC(=O)[C@H]2c3ccccc3C(=O)N(CC(F)(F)F)[C@@H]2c2cccnc2)c1 (racemic) [Example 12, N-(3-chloro-5-cyanophenyl)-1-oxo-3-(pyridin-3-yl)-2-(2,2,2-trifluoroethyl)-1,2,3,4-tetrahydroisoquinoline-4-carboxamide]",36
10,"CC(C)CN1C(=O)c2ccccc2[C@H](C(=O)Nc2cccc(C#N)c2)[C@H]1c1cn[nH]c1 (racemic) [Example 13, N-(3-cyanophenyl)-2-isobutyl-1-oxo-3-(1H-pyrazol-4-yl)-1,2,3,4-tetrahydroisoquinoline-4-carboxamide]",7
11,"N#Cc1cccc(NC(=O)[C@H]2c3ccccc3C(=O)N(CC(F)(F)F)[C@@H]2c2cn[nH]c2)c1 (racemic) [Example 14, N-(3-cyanophenyl)-1-oxo-3-(1H-pyrazol-4-yl)-2-(2,2,2-trifluoroethyl)-1,2,3,4-tetrahydroisoquinoline-4-carboxamide]",30
12,"CC(C)CN1C(=O)c2ccccc2[C@H](C(=O)Nc2cccc(C#N)c2)[C@H]1c1cnn(C)c1 (racemic) [Example 15, N-(3-cyanophenyl)-2-isobutyl-3-(1-methyl-1H-pyrazol-4-yl)-1-oxo-1,2,3,4-tetrahydroisoquinoline-4-carboxamide]",36
13,"Cn1cc([C@@H]2[C@@H](C(=O)Nc3cccc(C#N)c3)c3ccccc3C(=O)N2CC(F)(F)F)cn1 (racemic) [Example 16, N-(3-cyanophenyl)-3-(1-methyl-1H-pyrazol-4-yl)-1-oxo-2-(2,2,2-trifluoroethyl)-1,2,3,4-tetrahydroisoquinoline-4-carboxamide]",22
14,"CC(C)CN1C(=O)c2ccccc2[C@H](C(=O)Nc2cccc(C#N)c2)[C@H]1c1cccnc1 (racemic) [Example 17, N-(3-cyanophenyl)-2-isobutyl-1-oxo-3-(pyridin-3-yl)-1,2,3,4-tetrahydroisoquinoline-4-carboxamide]",58
15,"N#Cc1cccc(NC(=O)[C@H]2c3ccccc3C(=O)N(CC(F)(F)F)[C@@H]2c2cccnc2)c1 (racemic) [Example 18, N-(3-cyanophenyl)-1-oxo-3-(pyridin-3-yl)-2-(2,2,2-trifluoroethyl)-1,2,3,4-tetrahydroisoquinoline-4-carboxamide]",24
16,"CC(C)CN1C(=O)c2ccccc2[C@H](C(=O)Nc2cc(F)cc(C#N)c2)[C@H]1c1cn[nH]c1 (racemic) [Example 19, N-(3-cyano-5-fluorophenyl)-2-isobutyl-1-oxo-3-(1H-pyrazol-4-yl)-1,2,3,4-tetrahydroisoquinoline-4-carboxamide]",4
17,"N#Cc1cc(F)cc(NC(=O)[C@H]2c3ccccc3C(=O)N(CC(F)(F)F)[C@@H]2c2cn[nH]c2)c1 (racemic) [Example 20, N-(3-cyano-5-fluorophenyl)-1-oxo-3-(1H-pyrazol-4-yl)-2-(2,2,2-trifluoroethyl)-1,2,3,4-tetrahydroisoquinoline-4-carboxamide]",9
18,"CC(C)CN1C(=O)c2ccccc2[C@H](C(=O)Nc2cc(F)cc(C#N)c2)[C@H]1c1cnn(C)c1 (racemic) [Example 21, N-(3-cyano-5-fluorophenyl)-2-isobutyl-3-(1-methyl-1H-pyrazol-4-yl)-1-oxo-1,2,3,4-tetrahydroisoquinoline-4-carboxamide]",21
19,"Cn1cc([C@@H]2[C@@H](C(=O)Nc3cc(F)cc(C#N)c3)c3ccccc3C(=O)N2CC(F)(F)F)cn1 (racemic) [Example 22, N-(3-cyano-5-fluorophenyl)-3-(1-methyl-1H-pyrazol-4-yl)-1-oxo-2-(2,2,2-trifluoroethyl)-l,2,3,4-tetrahydroisoquinoline-4-carboxamide]",9
20,"CC(C)CN1C(=O)c2ccccc2[C@H](C(=O)Nc2cc(F)cc(C#N)c2)[C@H]1c1cccnc1 (racemic) [Example 23, N-(3-cyano-5-fluorophenyl)-2-isobutyl-1-oxo-3-(pyridin-3-yl)-1,2,3,4-tetrahydroisoquinoline-4-carboxamide]",20
21,"N#Cc1cc(F)cc(NC(=O)[C@H]2c3ccccc3C(=O)N(CC(F)(F)F)[C@@H]2c2cccnc2)c1 (racemic) [Example 24, N-(3-cyano-5-fluorophenyl)-1-oxo-3-(pyridin-3-yl)-2-(2,2,2-trifluoroethyl)-1,2,3,4-tetrahydroisoquinoline-4-carboxamide]",38
22,"CC(C)CN1C(=O)c2ccccc2[C@H](C(=O)Nc2cccc(OC(F)(F)F)c2)[C@H]1c1cn[nH]c1 (racemic) [Example 25, 2-isobutyl-1-oxo-3-(1H-pyrazol-4-yl)-N-(3-(trifluoromethoxy)phenyl)-1,2,3,4-tetrahydroisoquinoline-4-carboxamide]",11
23,"O=C(Nc1cccc(OC(F)(F)F)c1)[C@H]1c2ccccc2C(=O)N(CC(F)(F)F)[C@@H]1c1cn[nH]c1 (racemic) [Example 26, 1-oxo-3-(1H-pyrazol-4-yl)-2-(2,2,2-trifluorocthyl)-N-(3-(trifluoromethoxy)phenyl)-1,2,3,4-tetrahydroisoquinoline-4-carboxamide]",19
24,"CC(C)CN1C(=O)c2ccccc2[C@H](C(=O)Nc2cccc(OC(F)(F)F)c2)[C@H]1c1cnn(C)c1 (racemic) [Example 27, 2-isobutyl-3-(1-methyl-1H-pyrazol-4-yl)-1-oxo-N-(3-(trifluoromethoxy)phenyl)-1,2,3,4-tetrahydroisoquinoline-4-carboxamide]",8
25,"CC(C)CN1C(=O)c2ccccc2[C@H](C(=O)Nc2cccc(OC(F)(F)F)c2)[C@H]1c1cccnc1 (racemic) [Example 29, 2-isobutyl-1-oxo-3-(pyridin-3-yl)-N-(3-(trifluoromethoxy)phenyl)-1,2,3,4-tetrahydroisoquinoline-4-carboxamide]",25
26,"O=C(Nc1cccc(OC(F)(F)F)c1)[C@H]1c2ccccc2C(=O)N(CC(F)(F)F)[C@@H]1c1cccnc1 (racemic) [Example 30, 1-oxo-3-(pyridin-3-yl)-2-(2,2,2-trifluoroethyl)-N-(3-(trifluoromethoxy)phenyl)-1,2,3,4-tetrahydroisoquinoline-4-carboxamide]",25
27,"CC(C)CN1C(=O)c2ccccc2[C@H](C(=O)Nc2ccc(F)c(OC(F)(F)F)c2)[C@H]1c1cn[nH]c1 (racemic) [Example 31, N-(4-fluoro-3-(trifluoromethoxy)phenyl)-2-isobutyl-1-oxo-3-(1H-pyrazol-4-yl)-1,2,3,4-tetrahydroisoquinoline-4-carboxamide]",13
